How the values were obtained:
Format in all cases: cell-based
[1] = test system: SU.86.86 pancreatic cancer cell line; test: Cell proliferation assay, pancreatic cancer cell lines
Source text: (§1) The MTT is a colorimetric assay to determine the cell proliferation rate. The yellow tetrazolium MTT (3-(4, 5-dimethylthiazolyl-2)-2, 5-diphenyltetrazolium bromide) is reduced, by metabolically active cells, in part by the action of dehydrogenase enzymes, to generate reducing equivalents such as NADH and NADPH. The resulting intracellular purple formazan can be solubilized and quantified by spectrophotometric means. The signals produced is directly proportional to the cell numbers. Describing the MTT assay in detail, experiments were done using six-point or 9 point drug titrations in multi-well tissue culture dishes, with outer rows left empty. Cells were suspended in complete media at densities of between 10^3 and 10^4 cell/ml, respectively, and added per well. The appropriate medium (200 μl) was then added. Twenty-four hours later, 10 μl of MTS solution, were added to one plates to determine the activity at the time of compound addition (T0). This plate was incubated at 37° for 4 hours and the optical density was measured on a Molecular Devices Thermomax at 490 nm using the Softmax program. The T0 plate served as a reference for initial activity at the beginning of the experiment.
(§2) Compound addition began 24 hours after seeding, the same time as the T0 determination. Serial dilutions at 4-fold 2-fold, 1-fold, 0.5-fold, 0.25-fold and 0.125-fold of previously determined IC50 values of each compound were made in a 96-deep well plate with the highest concentrations on the edge of the plate. Each of the six dilutions were added in triplicate and complete medium was added to the empty outer rows, without cells. The compounds were added to the plates singly or in combination with Compound III (LBH589). The plates were incubated at 37° C. for 72 hours from seeding. The MTS solution was added (as for the T0 plate) and read four hours later. In order to analyze the data, the average value of media alone (background) was subtracted from each experimental well and the triplicate values were averaged for each compound dilution. The following formulas were used to calculate percent growth.
(§3) If X>T0, % Growth=100×(X−T0)/(GC−T0))
(§4) If X<T0, % Growth=100×(X−T0)/T0)
(§5) T0=average value of T0 minus background
(§6) GC=average value of untreated cells (in triplicate) minus background X=average value, of compound treated cells (in triplicate) minus background
(§7) IC50 the concentration of LBH589 required to inhibit cell growth by 50% and LD50s the concentration required to reduce cell number (kill cells) to 50% the original innoculum were determined. The “% Growth” was plotted against compound concentration and used to calculate IC50s and LD50s, employing the user-defined spline function in Microsoft Excel.
(§8) Pancreatic cancer cell lines were treated with DMSO vehicle control or varying concentrations of LBH589 for 3 days. Cell proliferation was measured on the day of cell plating and on the third day post-treatment. IC50 and LD50 values were calculated as described above.

[2] = test system: Panc2.03 pancreatic cancer cell line; test: as above
Source text: as §1, §2, §3, §4, §5, §6, §7, §8

[3] = test system: BxPC3 pancreatic cancer cell line; test: as above
Source text: as §1, §2, §3, §4, §5, §6, §7, §8

[4] = test system: MiaPaCa2 pancreatic cancer cell line; test: as above
Source text: as §1, §2, §3, §4, §5, §6, §7, §8

[5] = test system: Panc1 pancreatic cancer cell line; test: as above
Source text: as §1, §2, §3, §4, §5, §6, §7, §8

[6] = test system: Panc3.27 pancreatic cancer cell line; test: as above
Source text: as §1, §2, §3, §4, §5, §6, §7, §8

[7] = test system: HPAC pancreatic cancer cell line; test: as above
Source text: as §1, §2, §3, §4, §5, §6, §7, §8

[8] = test system: AsPC1 pancreatic cancer cell line; test: as above
Source text: as §1, §2, §3, §4, §5, §6, §7, §8

[9] = test system: LS1034 colon cancer cell line; test: Monolayer growth inhibition assay (MTT/MTS)
Source text: as §1, §2, §3, §4, §5, §6, §7
(§9) Colon cancer cell lines were treated with DMSO vehicle control or varying concentrations of LBH589 for 3 days. Cell proliferation was measured on the day of cell plating and on the third day post-treatment. IC50 and LD50 values were calculated as described above.

[10] = test system: C170 colon cancer cell line; test: Monolayer growth inhibition assay (MTT/MTS)
Source text: as §1, §2, §3, §4, §5, §6, §7, §9

[11] = test system: Colo320HSR colon cancer cell line; test: Monolayer growth inhibition assay (MTT/MTS)
Source text: as §1, §2, §3, §4, §5, §6, §7, §9

[12] = test system: C2Bbe-1 colon cancer cell line; test: Monolayer growth inhibition assay (MTT/MTS)
Source text: as §1, §2, §3, §4, §5, §6, §7, §9

[13] = test system: SW837 colon cancer cell line; test: Monolayer growth inhibition assay (MTT/MTS)
Source text: as §1, §2, §3, §4, §5, §6, §7, §9

[14] = test system: SNU-C1 colon cancer cell line; test: Monolayer growth inhibition assay (MTT/MTS)
Source text: as §1, §2, §3, §4, §5, §6, §7, §9

[15] = test system: SW948 colon cancer cell line; test: Monolayer growth inhibition assay (MTT/MTS)
Source text: as §1, §2, §3, §4, §5, §6, §7, §9

[16] = test system: SW48 colon cancer cell line; test: Monolayer growth inhibition assay (MTT/MTS)
Source text: as §1, §2, §3, §4, §5, §6, §7, §9

[17] = test system: CaCo2 colon cancer cell line; test: Monolayer growth inhibition assay (MTT/MTS)
Source text: as §1, §2, §3, §4, §5, §6, §7, §9

[18] = test system: 36 colon cancer cell lines; test: Monolayer growth inhibition assay, panel summary; details: 3 days treatment
Source text: as §1, with “Twenty-four hours later, 10 μl of MTS solution, were added to one plates to determine the activity at the time of compound addition (T0).” left out, “The T0 plate served as a reference for initial activity at the beginning of the experiment.” left out
Compound addition began 24 hours after seeding, the same time as the T0 determination. […] The MTS solution was added (as for the T0 plate) and read four hours later. […]
as §9

[19] = 3 days, concentration reducing cell number to 50% of original inoculum

SMILES: Cc1[nH]c2ccccc2c1CCNCc1ccc(/C=C/C(=O)NO)cc1 [LBH589, N-hydroxy-3-[4-[[[2-(2-methyl-1H-indol-3-yl)ethyl]-amino]methyl]phenyl]-2E-2-propenamide]
- IC50 ([1]; Homo sapiens, 72 h, SU.86.86, 3 days treatment): 51 nM
- LD50 ([1]; SU.86.86, 3 days, concentration reducing cell number to 50% of original inoculum): 170.4 nM
- IC50 ([2]; Homo sapiens, Panc203, 72 h, Panc2.03, 3 days treatment): 22.4 nM
- LD50 ([2]; Panc2.03, 3 days, concentration reducing cell number to 50% of original inoculum): 599.5 nM
- LD50 ([3]; BxPC3, 3 days, concentration reducing cell number to 50% of original inoculum): 104.8 nM
- IC50 ([3]; Homo sapiens, BXPC-3, 72 h, BxPC3, 3 days treatment): 15.9 nM
- IC50 ([4]; Homo sapiens, MIA PaCa-2, 72 h, MiaPaCa2, 3 days treatment): 14.1 nM
- LD50 ([4]; MiaPaCa2, 3 days, concentration reducing cell number to 50% of original inoculum): 59.5 nM
- IC50 ([5]; Homo sapiens, PANC-1, 72 h, Panc1, 3 days treatment): 18.9 nM
- LD50 ([5]; Panc1, 3 days, concentration reducing cell number to 50% of original inoculum): 175.4 nM
- LD50 ([6]; Panc3.27, 3 days, concentration reducing cell number to 50% of original inoculum): 276.8 nM
- IC50 ([6]; Pancreatic cancer cell, 72 h, Panc3.27, 3 days treatment): 38.5 nM
- LD50 [7, 19]: 2051.6 nM
- IC50 ([7]; Homo sapiens, 72 h, 3 days treatment): 123 nM
- LD50 ([8]; AsPC1, 3 days, concentration reducing cell number to 50% of original inoculum): 372.4 nM
- IC50 ([8]; Homo sapiens, 72 h, AsPC1, 3 days treatment): 25.1 nM
- IC50 ([9]; Homo sapiens, LS-1034, 72 h, LS1034, 3 days treatment): 76.7 nM
- LD50 ([9]; LS1034, 3 days, concentration reducing cell number to 50% of original inoculum): 227.83 nM
- LD50 ([10]; C170, 3 days, concentration reducing cell number to 50% of original inoculum): 382.03 nM
- IC50 ([10]; Homo sapiens, 72 h, C170, 3 days treatment): 62.3 nM
- LD50 [11, 19]: >10 µM
- IC50 ([11]; Homo sapiens, COLO-320-HSR, 72 h, 3 days treatment): 13.8 nM
- LD50 ([12]; C2Bbe-1, 3 days, concentration reducing cell number to 50% of original inoculum): 243.12 nM
- IC50 ([12]; Homo sapiens, C2BBe1, 72 h, C2Bbe-1, 3 days treatment): 27.5 nM
- IC50 ([13]; Homo sapiens, 72 h, SW837, 3 days treatment): 0.66 nM
- LD50 ([13]; SW837, 3 days, concentration reducing cell number to 50% of original inoculum): 11.46 nM
- IC50 ([14]; Homo sapiens, 72 h, SNU-C1, 3 days treatment): 4.51 nM
- LD50 ([14]; SNU-C1, 3 days, concentration reducing cell number to 50% of original inoculum): 26.07 nM
- IC50 ([15]; Homo sapiens, 72 h, SW948, 3 days treatment): 5.06 nM
- LD50 ([15]; SW948, 3 days, concentration reducing cell number to 50% of original inoculum): 34.92 nM
- IC50 ([16]; Homo sapiens, 72 h, SW48, 3 days treatment): 1.29 nM
- LD50 ([16]; SW48, 3 days, concentration reducing cell number to 50% of original inoculum): 13.09 nM
- LD50 ([17]; CaCo2, 3 days, concentration reducing cell number to 50% of original inoculum): 45.55 nM
- IC50 ([17]; Homo sapiens, Caco-2, 72 h, CaCo2, 3 days treatment): 13.8 nM
- IC50 values ([18]; all 36 colon cancer cell lines): low nanomolar
- LD50 ([18]; great majority of the colon cancer cell lines (n=31)): < 1 µM

From US20100137398A1, “USE OF HDAC INHIBITORS FOR THE TREATMENT OF GASTROINTESTINAL CANCERS” (NOVARTIS AG, priority 2007, published 2010)
